From patent US20260083865A1, “PROSTATE SPECIFIC MEMBRANE ANTIGEN (PSMA) LIGANDS AND USE THEREOF” (priority 2022, published 2026)
Numbered stars: 1 amine (or outer) side, 2 acyl side, 3 side chain; on linkers, the order of the positions; unused ones are H or OH. Bridge positions count the residues as written; N and C are the ends. Square brackets hold non-standard residues; d marks the D form. Side chains are listed from the residue outwards. Peptide text beside a SMILES is read from it. * marks the point of attachment. Acetyl(1-DOTA-4-piperidyl) = O=C(O)CN1CCN(CC(=O)O)CCN(CC(=O)N2CCC(CC(=O)*)CC2)CCN(CC(=O)O)CC1; X3 = O=C(O)CN1CCN(CC(=O)O)CCN(CC(=O)NCCCOCCOCCOCCCN*)CCN(CC(=O)O)CC1; DOTA = O=C(O)CN1CCN(CC(=O)O)CCN(CC(=O)*)CCN(CC(=O)O)CC1; Phe(3-Cl) = N[C@@H](Cc1cccc(Cl)c1)C(=O)O; Phe(4-Cl) = N[C@@H](Cc1ccc(Cl)cc1)C(=O)O; Pro(4R-NH2) = N[C@H]1CN[C@H](C(=O)O)C1; Arg(Me) = CNC(=N)NCCC[C@H](N)C(=O)O; αMeF = C[C@](N)(Cc1ccccc1)C(=O)O; X1 = O=C(CC1CCN([*:1])CC1)[*:2]; X6 = O=C(CN1CCN([*:1])CC1)[*:2]; Cit = NC(=O)NCCC[C@H](N)C(=O)O; Lys(Me) = CNCCCC[C@H](N)C(=O)O; Suc = O=C(CCC(=O)[*:2])[*:1]; Tle = CC(C)(C)[C@H](N)C(=O)O; Pyridin(2-yl) = c1ccc(*)nc1; 4Amb = NCc1ccc(C(=O)O)cc1; Orn = NCCC[C@H](N)C(=O)O; Aib = CC(C)(N)C(=O)O; CO = O=C([*:1])[*:2]; CH2 = C([*:1])[*:2]; βAla = NCCC(=O)O; NHBu = CCCCN*

Columns and labels:
[1] = target: T1, PSMA-expressing C4-2 cells (Homo sapiens, UniProt Q04609); test: FACS binding assay (competition with 50 nM PSM-0183); conditions: pIC50 category of FACS binding, C4-2 cells; read-out: pIC50 [C4-2] CAT (converted)
T1 construct: PSMA-expressing C4-2 cells (ATCC, Cat. No. CRL-3314) were cultured in RPMI-1640; host or cells: C4-2 cells
T1 sequence (Q04609 whole entry): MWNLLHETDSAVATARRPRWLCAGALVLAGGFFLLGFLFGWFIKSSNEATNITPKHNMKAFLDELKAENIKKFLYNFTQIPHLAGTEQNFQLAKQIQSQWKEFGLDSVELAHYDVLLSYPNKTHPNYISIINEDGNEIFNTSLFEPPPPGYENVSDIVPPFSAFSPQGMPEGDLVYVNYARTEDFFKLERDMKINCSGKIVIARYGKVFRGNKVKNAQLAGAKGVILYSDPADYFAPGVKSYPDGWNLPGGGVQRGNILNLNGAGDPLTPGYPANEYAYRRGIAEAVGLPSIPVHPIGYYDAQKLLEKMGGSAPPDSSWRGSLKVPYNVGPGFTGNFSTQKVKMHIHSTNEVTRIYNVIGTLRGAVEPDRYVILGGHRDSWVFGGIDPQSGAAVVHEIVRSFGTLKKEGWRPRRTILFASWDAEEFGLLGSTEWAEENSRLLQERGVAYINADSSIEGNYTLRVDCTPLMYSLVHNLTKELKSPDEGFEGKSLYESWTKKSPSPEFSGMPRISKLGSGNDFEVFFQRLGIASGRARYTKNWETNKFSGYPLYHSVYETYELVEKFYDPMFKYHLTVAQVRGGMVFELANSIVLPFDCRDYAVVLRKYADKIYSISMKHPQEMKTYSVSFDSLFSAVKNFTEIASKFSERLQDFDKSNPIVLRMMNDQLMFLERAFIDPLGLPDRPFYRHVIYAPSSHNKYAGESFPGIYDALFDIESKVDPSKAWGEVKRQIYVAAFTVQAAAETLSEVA
Summary of the method: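 Competition format: fluorescent tracer PSM-0183 (50 nM) displaced from PSMA on C4-2 cells by a test compound titration over 1 h at 4 °C. Bound tracer was quantified as flow-cytometric AF488 median fluorescence after washing. Four-parameter logistic fits of MFI data gave IC50 and pIC50.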

[2] = target: T2, Fc-fusion protein of human PSMA (hPSMA-Fc) (Homo sapiens, UniProt Q04609); test: Surface plasmon resonance assay (Biacore T200, single cycle kinetic); format: binding; conditions: pKD category for PSMA SPR activity assay, hPSMA-Fc, 25° C.; read-out: pKD CAT (converted)
T2 construct: purchased Acro Biosystems PSA-H5264
T2 sequence (Q04609 44-750 limits assumed): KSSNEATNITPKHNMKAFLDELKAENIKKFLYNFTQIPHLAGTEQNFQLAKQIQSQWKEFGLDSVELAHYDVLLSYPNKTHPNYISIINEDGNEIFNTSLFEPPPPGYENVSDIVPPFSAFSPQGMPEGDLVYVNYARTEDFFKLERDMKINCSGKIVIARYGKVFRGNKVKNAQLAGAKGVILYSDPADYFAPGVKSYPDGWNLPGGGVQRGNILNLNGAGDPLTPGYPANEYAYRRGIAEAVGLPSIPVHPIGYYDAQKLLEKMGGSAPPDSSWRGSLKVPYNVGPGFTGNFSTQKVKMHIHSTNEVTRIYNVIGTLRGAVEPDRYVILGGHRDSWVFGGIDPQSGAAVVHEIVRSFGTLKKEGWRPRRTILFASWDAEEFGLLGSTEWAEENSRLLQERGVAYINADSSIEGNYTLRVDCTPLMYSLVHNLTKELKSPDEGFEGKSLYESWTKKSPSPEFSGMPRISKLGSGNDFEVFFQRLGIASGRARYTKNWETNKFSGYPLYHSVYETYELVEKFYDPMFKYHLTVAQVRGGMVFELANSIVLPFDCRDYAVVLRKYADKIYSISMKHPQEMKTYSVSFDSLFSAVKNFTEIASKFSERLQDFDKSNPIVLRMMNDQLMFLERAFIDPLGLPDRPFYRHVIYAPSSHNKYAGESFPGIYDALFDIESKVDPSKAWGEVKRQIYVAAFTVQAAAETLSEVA
Summary of the method: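 KD, expressed as pKD, came from 1:1 Langmuir fits of reference- and buffer-blank-subtracted SPR data. The runs were single-cycle kinetics at 25° C in HBST/0.1% DMSO over human PSMA-Fc, captured to ~1000 RU on a peptide-coated CM5 surface and regenerated with 10 mM glycine pH 1.5.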

Structure (SMILES) | IC50 [1] | Kd [2]
C[C@@H](O)[C@H](NC(=O)[C@@H](NC(=O)[C@@H]1CSSC[C@H](NC(=O)[C@H](Cc2ccccc2)NC(=O)C(C)(C)NC(=O)CN2CCN(C(=O)CN3CCN(CC(=O)O)CCN(CC(=O)O)CCN(CC(=O)O)CC3)CC2)C(=O)N[C@@H](CCCCN)C(=O)N[C@@H](CCCNC(=N)N)C(=O)NC(C)(C)C(=O)N[C@@H](CC(N)=O)C(=O)N1)C(C)(C)C)C(N)=O [PSM-0413, DOTA-PPAc-Aib-Phe-[Cys-Lys-Arg-Aib-Asn-Cys]-Tle-Thr-NH2] ({DOTA}-[X6][Aib]FCKR[Aib]NC[Tle]T-NH2; disulfide 4-9) | < 200 nM | 12.6 to 126 nM
CC(=O)N[C@H](C(=O)N[C@@H](C)C(=O)N[C@@](C)(Cc1ccccc1)C(=O)N[C@H]1CSSC[C@@H](C(=O)N[C@H](C(=O)N[C@H](C(N)=O)[C@@H](C)O)C(C)(C)C)NC(=O)[C@H](CC(N)=O)NC(=O)C(C)(C)NC(=O)[C@H](CCCNC(=N)N)NC(=O)[C@H](CCCCN)NC1=O)[C@@H](C)O [PSM-0414, Ac-Thr-Ala-Amf-[Cys-Lys-Arg-Aib-Asn-Cys]-Tle-Thr-NH2] (Ac-TA[αMeF]CKR[Aib]NC[Tle]T-NH2; disulfide 4-9) | > 3160 nM | 12.6 to 126 nM
CC(=O)N[C@H](C(=O)NC(C)(C)C(=O)N[C@@H](Cc1ccccc1)C(=O)N[C@H]1CSSC[C@@H](C(=O)N[C@H](C(=O)N[C@H](C(N)=O)[C@@H](C)O)C(C)(C)C)NC(=O)[C@H](CC(N)=O)NC(=O)[C@H](CCCCNC(=O)CC2CCN(C(=O)CN3CCN(CC(=O)O)CCN(CC(=O)O)CCN(CC(=O)O)CC3)CC2)NC(=O)[C@H](CCCNC(=N)N)NC(=O)[C@H](CCCCN)NC1=O)[C@@H](C)O [PSM-0415, Ac-Thr-Aib-Phe-[Cys-Lys-Arg-Lys(DOTA-Cmp)-Asn-Cys]-Tle-Thr-NH2] (Ac-T[Aib]FCKRK(Acetyl(1-DOTA-4-piperidyl))NC[Tle]T-NH2; disulfide 4-9) | < 200 nM | 12.6 to 126 nM
CC(=O)N[C@H](C(=O)NC(C)(C)C(=O)N[C@@H](Cc1ccccc1)C(=O)N[C@H]1CSSC[C@@H](C(=O)N[C@H](C(=O)N[C@H](C(N)=O)[C@@H](C)O)C(C)(C)C)NC(=O)[C@H](CC(N)=O)NC(=O)[C@H](CCCCNC(=O)c2ccc(CNC(=O)CN3CCN(CC(=O)O)CCN(CC(=O)O)CCN(CC(=O)O)CC3)cc2)NC(=O)[C@H](CCCNC(=N)N)NC(=O)[C@H](CCCCN)NC1=O)[C@@H](C)O [PSM-0419, Ac-Thr-Aib-Phe-[Cys-Lys-Arg-Lys(DOTA-Pamb)-Asn-Cys]-Tle-Thr-NH2] (Ac-T[Aib]FCKRK([4Amb-DOTA])NC[Tle]T-NH2; disulfide 4-9) | < 200 nM | < 12.6 nM
CNCCCC[C@@H]1NC(=O)[C@@H](NC(=O)[C@H](Cc2ccc(Cl)cc2)NC(=O)C(C)(C)NC(=O)[C@@H](NC(=O)CC2CCN(C(=O)CN3CCN(CC(=O)O)CCN(CC(=O)O)CCN(CC(=O)O)CC3)CC2)[C@@H](C)O)CSCSC[C@@H](C(=O)N[C@H](C(N)=O)C(C)(C)C)NC(=O)[C@H](CC(N)=O)NC(=O)C(C)(C)NC(=O)[C@H](CCCNC(=N)NC)NC1=O [PSM-0420, DOTA-Cmp-Thr-Aib-Pcf-[Smc-Lys(Me)-Arg(Me)-Aib-Asn-Cys]-Tle-NH2] ({DOTA}-[X1]T[Aib][Phe(4-Cl)]C[Lys(Me)][Arg(Me)][Aib]NC[Tle]-NH2; linker 5-10 via CH2) | < 200 nM | < 12.6 nM
CC(=O)N[C@H](C(=O)NC(C)(C)C(=O)N[C@@H](Cc1ccc(Cl)cc1)C(=O)N[C@H]1CSSC[C@@H](C(=O)N[C@H](CC(C)C)C(=O)N[C@H](C(N)=O)[C@@H](C)O)NC(=O)[C@H](CC(N)=O)NC(=O)C(C)(C)NC(=O)[C@H](CCCNC(N)=O)NC(=O)[C@H](CCCCN)NC1=O)[C@@H](C)O [PSM-0421, Ac-Thr-Aib-Pcf-[Cys-Lys-Cit-Aib-Asn-Cys]-leu-Thr-NH2] (Ac-T[Aib][Phe(4-Cl)]CK[Cit][Aib]NC[dL]T-NH2; disulfide 4-9) | 200 to 1260 nM | 126 to 501 nM
CC(=O)N[C@H](C(=O)NC(C)(C)C(=O)N[C@@H](Cc1ccccc1)C(=O)N[C@H]1CSSC[C@@H](C(=O)N[C@H](C(=O)N[C@H](C(=O)N[C@@H](CC(=O)O)C(N)=O)[C@@H](C)O)C(C)(C)C)NC(=O)[C@H](CC(N)=O)NC(=O)[C@H](C)NC(=O)[C@H](CCCNC(=N)N)NC(=O)[C@@H]2C[C@@H](N)CN2C1=O)[C@@H](C)O [PSM-0422, Ac-Thr-Aib-Phe-[Cys-Tap-Arg-Ala-Asn-Cys]-Tle-Thr-Asp-NH2] (Ac-T[Aib]FC[Pro(4R-NH2)]RANC[Tle]TD-NH2; disulfide 4-9) | < 200 nM | 126 to 501 nM
CC(=O)N[C@H](C(=O)NC(C)(C)C(=O)N[C@@H](Cc1ccccc1)C(=O)N[C@H]1CSSC[C@@H](C(=O)N[C@H](C(=O)N[C@H](C(N)=O)[C@@H](C)O)C(C)(C)C)NC(=O)[C@H](CC(N)=O)NC(=O)[C@H](CCCCNC(=O)CCC(=O)NCCCOCCOCCOCCCNC(=O)CN2CCN(CC(=O)O)CCN(CC(=O)O)CCN(CC(=O)O)CC2)NC(=O)[C@H](CCC(N)=O)NC(=O)[C@H](CCCCN)NC1=O)[C@@H](C)O [PSM-0423, Ac-Thr-Aib-Phe-[Cys-Lys-Gln-Lys(DOTA-Ttds)-Asn-Cys]-Tle-Thr-NH2] (Ac-T[Aib]FCKQK([Suc-X3])NC[Tle]T-NH2; disulfide 4-9) | 200 to 1260 nM | 12.6 to 126 nM
CC(=O)N[C@H](C(=O)NC(C)(C)C(=O)N[C@@H](Cc1ccccc1)C(=O)N[C@H]1CSSC[C@@H](C(=O)N[C@H](C(=O)NCCC(N)=O)C(C)(C)C)NC(=O)[C@H](CC(N)=O)NC(=O)C(C)(C)NC(=O)[C@H](CCCNC(=N)N)NC(=O)[C@H](CCCCN)NC1=O)[C@@H](C)O [PSM-0426, Ac-Thr-Aib-Phe-[Cys-Lys-Arg-Aib-Asn-Cys]-Tle-Bal-NH2] (Ac-T[Aib]FCKR[Aib]NC[Tle][βAla]-NH2; disulfide 4-9) | < 200 nM | < 12.6 nM
CCCCNC(=O)N[C@H](C(=O)NC(C)(C)C(=O)N[C@@H](Cc1ccc(Cl)cc1)C(=O)N[C@H]1CSSC[C@@H](C(=O)N[C@H](C(=O)N[C@H](C(=O)N2CCC(CC(=O)N[C@H](CCCCNC(=O)CN3CCN(CC(=O)O)CCN(CC(=O)O)CCN(CC(=O)O)CC3)C(N)=O)CC2)[C@@H](C)O)C(C)(C)C)NC(=O)[C@H](CC(N)=O)NC(=O)C(C)(C)NC(=O)[C@H](CCCNc2ccccn2)NC(=O)[C@H](CCCCN)NC1=O)[C@@H](C)O [PSM-0427, nBuCAyl-Thr-Aib-Pcf-[Cys-Lys-Opy-Aib-Asn-Cys]-Tle-Thr-Cmp-lys(DOTA)-NH2] ({NHBu-CO}-T[Aib][Phe(4-Cl)]CK[Orn](Pyridin(2-yl))[Aib]NC[Tle]T[X1][dK](DOTA)-NH2; disulfide 4-9) | < 200 nM | 12.6 to 126 nM
C[C@@H](O)[C@H](NC(=O)[C@@H](NC(=O)[C@@H]1CSSC[C@H](NC(=O)[C@H](Cc2cccc(Cl)c2)NC(=O)C(C)(C)NC(=O)[C@@H](NC(=O)CC2CCN(C(=O)CN3CCN(CC(=O)O)CCN(CC(=O)O)CCN(CC(=O)O)CC3)CC2)[C@@H](C)O)C(=O)N[C@@H](CCCCN)C(=O)N[C@@H](CCCNC(N)=O)C(=O)NC(C)(C)C(=O)N[C@@H](CC(N)=O)C(=O)N1)C(C)(C)C)C(N)=O [PSM-0431, DOTA-Cmp-Thr-Aib-Mcf-[Cys-Lys-Cit-Aib-Asn-Cys]-Tle-Thr-NH2] ({DOTA}-[X1]T[Aib][Phe(3-Cl)]CK[Cit][Aib]NC[Tle]T-NH2; disulfide 5-10) | 200 to 1260 nM | < 12.6 nM
